target: T1, BTK-WT (Homo sapiens, UniProt Q06187); experiment: Btk in vitro inhibitory activity (one of Method A TR-FRET, Method B electrophoretic mobility shift, Method C radiometric filter binding); assay type: biochemical; conditions: E compounds, Table 17; read-out: IC50 BTK-WT
T1 construct: purified from insect cells as a full-length construct containing an N-terminal 6X-His tag; His6 (N); made in house; host or cells: insect cells (baculovirus Sf21 in Method B)
T1 sequence (Q06187 whole entry): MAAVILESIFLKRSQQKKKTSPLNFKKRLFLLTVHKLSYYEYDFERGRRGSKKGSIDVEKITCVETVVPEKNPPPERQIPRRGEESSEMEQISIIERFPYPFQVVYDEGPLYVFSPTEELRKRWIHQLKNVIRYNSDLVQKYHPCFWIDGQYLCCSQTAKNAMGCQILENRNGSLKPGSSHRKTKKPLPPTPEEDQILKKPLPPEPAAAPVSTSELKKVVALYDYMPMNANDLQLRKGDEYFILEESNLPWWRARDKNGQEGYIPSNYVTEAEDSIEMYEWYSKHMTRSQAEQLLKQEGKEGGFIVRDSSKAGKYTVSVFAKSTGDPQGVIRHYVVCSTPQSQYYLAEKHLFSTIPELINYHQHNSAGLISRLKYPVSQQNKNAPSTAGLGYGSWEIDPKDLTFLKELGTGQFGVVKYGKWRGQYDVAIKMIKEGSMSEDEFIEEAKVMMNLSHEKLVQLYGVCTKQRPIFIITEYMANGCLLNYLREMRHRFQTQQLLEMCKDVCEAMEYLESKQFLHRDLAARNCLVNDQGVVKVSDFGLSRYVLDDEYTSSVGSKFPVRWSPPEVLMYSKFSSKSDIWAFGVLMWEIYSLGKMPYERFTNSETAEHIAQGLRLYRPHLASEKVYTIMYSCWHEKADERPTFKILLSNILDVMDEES

SMILES	IC50 [nM]
C=CC(=O)N[C@@H]1CCCN(c2cnc(C(N)=O)c(Nc3ccc(C4CCN(C5CC5)CC4)cc3)n2)[C@@H]1C [Example E-93, 5-((2R,3R)-3-acrylamido-2-methylpiperidin-1-yl)-3-(4-(1-cyclopropylpiperidin-4-yl)phenylamino)pyrazine-2-carboxamide]	≤ 10
C=CC(=O)N1CC[C@@H](N(C)c2nnc(C(N)=O)c(Nc3ccc(C(C)C)cc3)n2)C1 [Example E-26, (R)-3-((1-acryloylpyrrolidin-3-yl)(methyl)amino)-5-(4-isopropylphenylamino)-1,2,4-triazine-6-carboxamide]	≤ 10
C=CC(=O)N1CCC[C@@H](Nc2nnc(C(N)=O)c(Nc3ccc(Cl)cc3)n2)[C@H]1C [Example E-7, 3-(((2R,3R)-1-acryloyl-2-methylpiperidin-3-yl)amino)-5-((4-chlorophenyl)amino)-1,2,4-triazine-6-carboxamide]	≤ 10
C=CC(=O)N1CCC[C@@H](Nc2nnc(C(N)=O)c(Nc3ccc(-c4ncccn4)cc3)n2)C1 [Example E-41, (R)-3-(1-acryloylpiperidin-3-ylamino)-5-(4-(pyrimidin-2-yl)phenylamino)-1,2,4-triazine-6-carboxamide]	≤ 10
C=CC(=O)N1CCC[C@@H](N(C)c2cnc(C(N)=O)c(Nc3ccc(C4CCN(C5CCCC5)CC4)cc3)n2)C1 [Example E-125, (R)-5-((1-acryloylpiperidin-3-yl)(methyl)amino)-3-(4-(1-cyclopentylpiperidin-4-yl)phenylamino)pyrazine-2-carboxamide]	≤ 10
CCC(O)(CC)c1ccc(C(=O)N[C@@H]2CCCN(c3cnc(C(N)=O)c(Nc4cnn(C)c4)n3)[C@@H]2C)cc1 [Example E-151, 5-((2R,3R)-3-(4-(3-hydroxypentan-3-yl)benzamido)-2-methylpiperidin-1-yl)-3-((1-methyl-1H-pyrazol-4-yl)amino)pyrazine-2-carboxamide]	≤ 10
C=CC(=O)N1CC[C@@H](N(C)c2nnc(C(N)=O)c(Nc3cc(C)ns3)n2)C1 [Example E-12, (R)-3-((1-acryloylpyrrolidin-3-yl)(methyl)amino)-5-(3-methylisothiazol-5-ylamino)-1,2,4-triazine-6-carboxamide]	≤ 10
C=CC(=O)N1CCC[C@@H](N(C)c2cnc(C(N)=O)c(Nc3ccc(C4(C)CCN(C5CCCC5)CC4)cc3)n2)C1 [Example E-103, (R)-5-((1-acryloylpiperidin-3-yl)(methyl)amino)-3-(4-(1-cyclopentyl-4-methylpiperidin-4-yl)phenylamino)pyrazine-2-carboxamide]	≤ 10

same assay, conditions: Table 13, A compounds; read-out: IC50 BTK-WT

SMILES	IC50 [nM]
C[C@@H]1[C@H](NC(=O)c2ccc(C3CC3)cc2F)CCCN1c1cnc(C(N)=O)c(Nc2cnn(C)c2)n1 [Example A-110, 5-[(2R,3R)-3-(4-cyclopropyl-2-fluorobenzamido)-2-methylpiperidin-1-yl]-3-[(1-methyl-1H-pyrazol-4-yl)amino]pyrazine-2-carboxamide]	≤ 10
C[C@@H]1[C@H](NC(=O)c2ccc(C3CC3)cc2)CCCN1c1cnc(C(N)=O)c(Nc2cnn(CCN(C)C)c2)n1 [Example A-182, 5-[(2R,3R)-3-(4-cyclopropylbenzamido)-2-methylpiperidin-1-yl]-3-({1-[2-(dimethylamino)ethyl]-1H-pyrazol-4-yl}amino)pyrazine-2-carboxamide]	10 to 100
Cn1cc(Nc2nc(N3C[C@@H](NC(=O)c4ccc(C5CC5)cc4)CC(F)(F)C3)cnc2C(N)=O)cn1 [Example A-187, (S)-5-(5-(4-cyclopropylbenzamido)-3,3-difluoropiperidin-1-yl)-3-(1-methyl-1H-pyrazol-4-ylamino)pyrazine-2-carboxamide]	100 to 1000

Source: patent US20210070748A1, “INHIBITORS OF BRUTONS TYROSINE KINASE” (Pharmacyclics LLC, priority 2015, published 2021)
